Data on six molecules can be found in patent publication US8716242B2, “β-hairpin peptidomimetics” (priority 2009, dated 2014).

Series [1] is described as follows: Plasma stability in human plasma. It is filed as in vitro ADME. To be noted: human plasma, 37° C.; for remaining at 24 h, 10 μM: 1440 min, read-out: human pl. cpd left at 1440 min. Put shortly:
(§1)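 Peptides (1 mM DMSO/H2O stock) were spiked into human or mouse plasma in triplicate and incubated at 37 °C, sampling from 0 to 1440 min. Samples were quenched in formic acid/acetonitrile and analysed by LC/MS MRM. Remaining percent of t=0 was calculated and T1/2 derived by trend fitting.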

The nature of series [2]: Plasma stability in mouse plasma. It is filed as in vitro ADME. Conditions: mouse plasma, 37° C.; for remaining at 24 h, 10 μM: 1440 min, read-out: mouse pl. cpd left at 1440 min. Put shortly:
as §1

The nature of series [3]: Cytotoxicity, MTT reduction assay, COS-7 cells. Type of series: cell-based. Conditions: African green monkey, COS-7 cells (CRL-1651), 12.5-50 μM. Put shortly: (§2)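 HELA (4000/well) and COS-7 (3400/well) cells were grown 24 h, then exposed 48 h at 37° C to peptides at 12.5, 25 and 50 μM in triplicate. MTT reduction read at 595 nm; growth % relative to time-zero, and GI50 interpolated by trend line.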

Series [4] deals with human red blood cells (hRBC). The series can be described thus: Hemolysis of human red blood cells. Type of series: cell-based. Conditions: 20% hRBC, 1 h, 37° C. In short, it runs like this: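 Washed fresh human erythrocytes (20% v/v, ~0.9×10^9 cells/mL final) incubated with compound at 100 μM for 1 h at 37 °C with shaking. Supernatant OD540 read; % hemolysis expressed relative to 2.5% Triton X-100 lysis (100%), with PBS/0.001% acetic acid as 0%.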

Series [5] is described as follows: Cytotoxicity, MTT reduction assay, HELA cells. To be noted: human, HELA cells (Acc57), 12.5-50 μM. It is filed as cell-based. Put shortly: as §2
In general terms: Tetrazolium assays rely on reduction of a dye to a coloured formazan, in cell work by metabolically active cells.

For the next series, the target named is T1, human CXCR4 (Homo sapiens, UniProt P61073).
T1 construct: expressed in transfected cells; host or cells: mouse pre-B cell line 300-19
Description: Ca2+-assay: CXCR4-antagonizing activity (SDF-1 induced calcium mobilization). Type of series: cell-based. Put shortly: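 Mouse pre-B 300-19 cells stably expressing human CXCR4, loaded with Calcium 4 dye in HBSS/20 mM HEPES pH 7.4/0.1% BSA for 1 h at RT. Peptides added before SDF-1; fluorescence (ex 485/em 525 nm) followed for 90 s. IC50 from four-parameter logistic fit of % maximal SDF-1 response.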
Background: Calcium assays in cells follow changes in intracellular calcium, usually with a dye or a luminescent sensor.

For series [6], the system named is intracranial glioblastoma and medulloblastoma xenografts. To be noted: systemic administration; cited from earlier work.
Where [7] appears, read: mouse pre-B cell line 300-19 transfected with human CXCR4, SDF-1 induced Ca2+ mobilization, read-out: IC50% [nM] ± SD, CXCR4 receptor.

Read-outs that look alike come from different tables or passages of the source. Bridge positions count the residues as written; N and C are the ends. Square brackets hold non-standard residues; d marks the D form. Peptide text beside a SMILES is read from it. * marks the point of attachment. Benzoyl(4-dodecyloxy) = CCCCCCCCCCCCOc1ccc(C(=O)*)cc1; Lauroyl = CCCCCCCCCCCC(=O)*; Decanoyl = CCCCCCCCCC(=O)*; Octanoyl = CCCCCCCC(=O)*; Dab = NCC[C@H](N)C(=O)O Where only a bound is given, the exact number is not on record here.

T1 sequence (P61073 whole entry): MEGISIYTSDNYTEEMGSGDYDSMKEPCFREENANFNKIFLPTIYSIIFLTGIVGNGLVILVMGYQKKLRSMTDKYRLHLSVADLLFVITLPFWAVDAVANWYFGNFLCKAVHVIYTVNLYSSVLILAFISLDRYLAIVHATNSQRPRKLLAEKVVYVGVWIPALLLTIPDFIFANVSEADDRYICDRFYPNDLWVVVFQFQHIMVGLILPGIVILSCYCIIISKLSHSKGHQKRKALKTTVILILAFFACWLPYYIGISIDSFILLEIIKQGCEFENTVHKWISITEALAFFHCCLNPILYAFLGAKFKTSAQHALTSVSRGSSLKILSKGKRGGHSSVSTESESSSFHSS

As usually defined, the GI50 is the concentration giving 50% growth inhibition. Broadly, the IC50 is the concentration at which inhibition is half-maximal. `CCCCCCCCCCCC(=O)NCC[C@@H]1NC(=O)[C@H](Cc2ccc(O)cc2)NC(=O)[C@@H]2CCCN2C(=O)[C@H]2CCCN2C(=O)[C@H](CCCCN)NC(=O)[C@H](CCC(N)=O)NC(=O)[C@H](Cc2ccc(O)cc2)NC(=O)[C@@H]2CSSC[C@H](NC(=O)[C@H](C)NC1=O)C(=O)N[C@@H](CCCNC(=N)N)C(=O)N[C@@H](C)C(=O)N1CCC[C@@H]1C(=O)N[C@@H](CCN)C(=O)N[C@@H](CCCNC(=N)N)C(=O)N[C@@H](Cc1ccc(O)cc1)C(=O)N2` [Ex. 1] (cyclo(Y[Dab](Lauroyl)ACRA[dP][Dab]RYCYQK[dP]P); disulfide 4-11): the remaining at 24 h, 10 μM in series [1] came to 87%; in series [2], 77%. For the same molecule, the “human pl. T1/2” value in series [1] (up to 1440 min) was 24 h. For the same molecule, the “mouse pl. T1/2” value in series [2] (up to 1440 min) was 24 h. Further, the GI50 at 48 h in series [3] was greater than 50 µM; in series [5], greater than 28 µM. Besides, the “Hemolysis at 100 μM” value in series [4] came to 2.6%. For the same molecule, on human CXCR4 (setting [7]), the IC50 came out at 94 ± 2.1 nM.
Take `CCCCCCCCCCCCOc1ccc(C(=O)NCCCC[C@@H]2NC(=O)[C@H](Cc3ccc(O)cc3)NC(=O)[C@@H]3CSSC[C@H](NC(=O)[C@H](Cc4ccc(O)cc4)NC(=O)[C@H](Cc4c[nH]cn4)NC(=O)[C@H](Cc4ccc(O)cc4)NC(=O)[C@@H]4CCCN4C(=O)[C@H]4CCCN4C(=O)[C@H](CCCCN)NC2=O)C(=O)N[C@@H](CO)C(=O)N[C@@H](C)C(=O)N2CCC[C@@H]2C(=O)N[C@@H](CCN)C(=O)N[C@@H](CCCNC(=N)N)C(=O)N[C@@H](Cc2ccc(O)cc2)C(=O)N3)cc1` [Ex. 24] (cyclo(YHYCSA[dP][Dab]RYCYK(Benzoyl(4-dodecyloxy))K[dP]P); disulfide 4-11): the remaining at 24 h, 10 μM came to 24% in series [1] and 22% in series [2]. For the same molecule, the half-life at 10 μM in series [1] (up to 1440 min, read-out: human pl. T1/2) was determined as 2.12 h; in series [2] (up to 1440 min, read-out: mouse pl. T1/2), 9.27 h. Also, the figures for the GI50 at 48 h in series [3] and in series [5] were greater than 50 µM and greater than 29 µM, respectively. The “Hemolysis at 100 μM” value in series [4] is given as 10.9%. The IC50 on human CXCR4 worked out at 6.1 ± 4.5 nM.
In the case of `CCCCCCCCCC(=O)NCC[C@@H]1NC(=O)[C@H](Cc2ccc(O)cc2)NC(=O)[C@@H]2CSSC[C@H](NC(=O)[C@H](C)NC(=O)[C@H](Cc3c[nH]cn3)NC(=O)[C@H](Cc3ccc(O)cc3)NC(=O)[C@@H]3CCCN3C(=O)[C@H]3CCCN3C(=O)[C@H](CCCCN)NC1=O)C(=O)N[C@@H](CCCNC(=N)N)C(=O)N[C@@H](C)C(=O)N1CCC[C@@H]1C(=O)N[C@@H](CCN)C(=O)N[C@@H](CCCNC(=N)N)C(=O)N[C@@H](Cc1ccc(O)cc1)C(=O)N2` [Ex. 10] (cyclo(YHACRA[dP][Dab]RYCY[Dab](Decanoyl)K[dP]P); disulfide 4-11), the values for the remaining at 24 h, 10 μM in series [1] and in series [2] were 85% and 63%, respectively. Besides, the “human pl. T1/2” value in series [1] (up to 1440 min) came to 24 h. In addition, the “mouse pl. T1/2” value in series [2] (up to 1440 min) worked out at 24 h. For the same molecule, the 50% growth inhibitory concentration (GI50) at 48 h in series [3] and in series [5] was greater than 50 µM throughout. Besides, the “Hemolysis at 100 μM” value in series [4] came out at 1.0%. Also, the IC50 on human CXCR4 (setting [7]) worked out at 8.1 ± 0.9 nM.
As for `CCCCCCCCCCCC(=O)NCC[C@@H]1NC(=O)[C@H]2CCCN2C(=O)[C@H](C)NC(=O)[C@H](CCCNC(=N)N)NC(=O)[C@@H]2CSSC[C@H](NC(=O)[C@H](Cc3ccc(O)cc3)NC(=O)[C@H](CCCNC(=N)N)NC1=O)C(=O)N[C@@H](Cc1ccc(O)cc1)C(=O)N[C@@H](CCC(N)=O)C(=O)N[C@@H](CCCCN)C(=O)N1CCC[C@@H]1C(=O)N1CCC[C@H]1C(=O)N[C@@H](Cc1ccc(O)cc1)C(=O)N[C@@H](Cc1c[nH]cn1)C(=O)N[C@@H](C)C(=O)N2` [Ex. 5] (cyclo(YHACRA[dP][Dab](Lauroyl)RYCYQK[dP]P); disulfide 4-11), the remaining at 24 h, 10 μM is 100% in series [1] and 73% in series [2]. Also, in series [1] (up to 1440 min), the “human pl. T1/2” value is 24 h. In addition, the “mouse pl. T1/2” value in series [2] (up to 1440 min) was found to be 24 h. Also, the 50% growth inhibitory concentration (GI50) at 48 h in series [3] was greater than 43 µM; in series [5], greater than 50 µM. In addition, in series [4], the “Hemolysis at 100 μM” value was found to be 0.3%. At human CXCR4, the IC50 came to 95.5 ± 12 nM.
With `CCCCCCCC(=O)NCCCC[C@@H]1NC(=O)[C@H](Cc2c[nH]cn2)NC(=O)[C@H](Cc2ccc(O)cc2)NC(=O)[C@@H]2CCCN2C(=O)[C@H]2CCCN2C(=O)[C@H](CCCCN)NC(=O)[C@H](CCC(N)=O)NC(=O)[C@H](Cc2ccc(O)cc2)NC(=O)[C@@H]2CSSC[C@H](NC1=O)C(=O)N[C@@H](CO)C(=O)N[C@@H](C)C(=O)N1CCC[C@@H]1C(=O)N[C@@H](CCN)C(=O)N[C@@H](CCCNC(=N)N)C(=O)N[C@@H](Cc1ccc(O)cc1)C(=O)N2` [Ex. 3] (cyclo(YHK(Octanoyl)CSA[dP][Dab]RYCYQK[dP]P); disulfide 4-11), the remaining at 24 h, 10 μM in series [1] and in series [2] was 86% in each case. Further, the “human pl. T1/2” value in series [1] (up to 1440 min) was found to be 24 h. Besides, the “mouse pl. T1/2” value in series [2] (up to 1440 min) stood at 24 h. In addition, the GI50 at 48 h was greater than 50 µM in series [3] and greater than 45 µM in series [5]. For the same molecule, the “Hemolysis at 100 μM” value in series [4] is reported as 0.6%. The IC50 at human CXCR4 (setting [7]) amounted to 19.4 ± 13 nM.
Take `c1cc(CN2CCCNCCNCCCNCC2)ccc1CN1CCCNCCNCCCNCC1` [AMD3100]: the “growth of intracranial glioblastoma and medulloblastoma xenografts” value in series [6] was “inhibits growth”.
